According to ChEMBL document CHEMBL2346651, “Structure-activity relationship study of tachykinin peptides for the development of novel neurokinin-3 receptor selective agonists” (Bioorg Med Chem, 2013):
pEC50, pIC50: −log10 of the molar value. Residues, ends and D or L forms follow the SMILES beside them.

Tests used:
[1] = molecular target: T1, Substance-K receptor (Homo sapiens) (UniProt P21452); assay: Displacement of [125I]-NKA from NK2R (unknown origin) transfected in CHO cells at 10 uM by gamma counting analysis; format: cell-based
T1 sequence (whole entry): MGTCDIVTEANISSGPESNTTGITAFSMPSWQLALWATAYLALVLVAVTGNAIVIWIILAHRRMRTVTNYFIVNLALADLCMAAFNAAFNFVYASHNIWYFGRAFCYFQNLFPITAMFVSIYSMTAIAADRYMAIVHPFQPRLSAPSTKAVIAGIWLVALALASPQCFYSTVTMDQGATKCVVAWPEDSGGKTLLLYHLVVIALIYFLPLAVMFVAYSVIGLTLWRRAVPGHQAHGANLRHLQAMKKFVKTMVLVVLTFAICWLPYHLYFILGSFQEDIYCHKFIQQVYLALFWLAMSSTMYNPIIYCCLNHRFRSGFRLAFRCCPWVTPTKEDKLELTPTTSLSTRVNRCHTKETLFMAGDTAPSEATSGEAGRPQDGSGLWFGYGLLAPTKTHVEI

[2] = molecular target: Substance-P receptor (Homo sapiens) (UniProt P25103); assay: Displacement of [125I]-BH-SP from NK1R (unknown origin) transfected in CHO cells at 10 uM by gamma counting analysis; format: cell-based
Sequence of Substance-P receptor (Homo sapiens) (P25103 whole entry): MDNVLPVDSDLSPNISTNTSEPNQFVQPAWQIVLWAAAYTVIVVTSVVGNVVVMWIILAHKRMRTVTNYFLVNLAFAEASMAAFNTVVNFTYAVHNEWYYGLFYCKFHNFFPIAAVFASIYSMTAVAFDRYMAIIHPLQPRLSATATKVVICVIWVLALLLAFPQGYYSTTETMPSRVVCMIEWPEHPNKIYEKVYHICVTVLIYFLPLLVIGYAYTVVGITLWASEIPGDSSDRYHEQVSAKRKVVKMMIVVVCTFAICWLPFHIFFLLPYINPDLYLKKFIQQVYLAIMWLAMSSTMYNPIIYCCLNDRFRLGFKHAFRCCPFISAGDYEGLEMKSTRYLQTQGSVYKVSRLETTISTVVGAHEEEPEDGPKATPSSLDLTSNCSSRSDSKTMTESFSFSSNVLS

Neuromedin-K receptor [3] = molecular target: T2, Neuromedin-K receptor (Homo sapiens, UniProt P29371); assay: Agonist activity at NK3R (unknown origin) transfected in CHO cells assessed as calcium influx […]; format: functional, cell-based
T2 sequence (P29371 whole entry): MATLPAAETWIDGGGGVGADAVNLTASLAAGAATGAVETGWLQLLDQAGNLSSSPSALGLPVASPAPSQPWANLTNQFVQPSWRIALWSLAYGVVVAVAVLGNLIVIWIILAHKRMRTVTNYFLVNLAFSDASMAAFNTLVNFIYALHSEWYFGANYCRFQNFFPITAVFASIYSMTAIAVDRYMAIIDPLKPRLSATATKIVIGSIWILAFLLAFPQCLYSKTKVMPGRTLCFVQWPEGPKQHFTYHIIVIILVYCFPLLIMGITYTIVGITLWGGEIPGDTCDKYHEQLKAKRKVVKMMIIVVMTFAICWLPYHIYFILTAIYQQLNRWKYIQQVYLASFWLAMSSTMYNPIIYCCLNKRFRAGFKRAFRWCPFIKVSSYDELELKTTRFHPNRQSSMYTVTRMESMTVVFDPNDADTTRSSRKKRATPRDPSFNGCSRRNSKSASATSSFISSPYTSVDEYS

Neuromedin-K receptor [4] = molecular target: T2, Neuromedin-K receptor; assay: Displacement of ([125I]-His3, MePhe7)-NKB from NK3R (unknown origin) transfected in CHO cells by gamma counting analysis; format: cell-based

inhibition [1]: < 10%
inhibition [2]: < 10%
pEC50 (Neuromedin-K receptor [3]): 10.40
pIC50 (Neuromedin-K receptor [4]): 7.42
SMILES: CSCC[C@H](NC(=O)[C@H](CC(C)C)NC(=O)CNC(=O)[C@H](Cc1ccccc1)N(C)C(=O)[C@H](Cc1ccccc1)NC(=O)[C@H](CC(=O)O)NC(=O)[C@H](CC(=O)O)NC(=O)[C@H](Cc1cnc[nH]1)NC(=O)[C@H](CCSC)NC(=O)[C@@H](N)CC(=O)O)C(N)=O (HELM PEPTIDE1{D.M.H.D.D.F.[meF].G.L.M.[am]}$$$$V2.0)
